Here are results for eleven molecules from ChEMBL document CHEMBL1201862, “PubChem BioAssay data set” (2004).

Among the test systems are OVCAR-4; SNB-19; EKVX; NCI-H522; T47D; BT-549; OVCAR-5; U-251; K562; LOX IMVI; SK-OV-3; MDA-MB-231; M14; UACC-62; SF-295; HOP-62; MCF7; CAKI-1; UO-31; RXF 393.
What all share (experiment): growth of human tumour cells (NCI), 48 h

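Interpolation was linear, between the two tested concentrations surrounding the appropriate level; five concentrations were tested over 48 hours in 96-well plates. The concentration for 50% growth inhibition is given as GI50.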 Activity calls are given as the source filed them. No stated cut-off is given here; in the data, active = GI50 up to about 1.1 µM and inactive = higher.

For the molecule `c1ccc2c(c1)SCCCSCCCS2`, the GI50 with OVCAR-4 is 76 µM (inactive); with SNB-19, > 100 µM (inactive); in the test on EKVX it was > 100 µM (inactive); with NCI-H522, > 100 µM (inactive); with T47D, > 100 µM (inactive); in the test on BT-549 it was > 100 µM (inactive). Further, the GI50 with OVCAR-5 was > 100 µM (inactive); in the test with U-251 it was > 100 µM (inactive); in the test on K562, > 100 µM (inactive); in the test with LOX IMVI it was > 100 µM (inactive); in the test on SK-OV-3 it was > 100 µM (inactive); in the test with MDA-MB-231, 65.3 µM (inactive). Moreover, the GI50 in the test on M14, with UACC-62, with SF-295, with HOP-62 and in the test with MCF7 was > 100 µM (inactive) in each case.

As to `CC1CCC2C(C)C(OC(=O)CCC(=O)O)OC3OC4(C)CCC1C32OO4` (stereo not given), the GI50 in the test on OVCAR-4 was 7.01 µM (inactive); in the test with SNB-19, 37.6 µM (inactive); in the test with EKVX, 6.27 µM (inactive); with T47D, 0.828 µM (active); in the test on BT-549, 11.2 µM (inactive); in the test with OVCAR-5, 1.31 µM (inactive). Besides, the GI50 was 12.1 µM (inactive) in the test with CAKI-1; 2.98 µM (inactive) in the test with U-251; 1.32 µM (inactive) in the test on K562; 1.06 µM (active) in the test on LOX IMVI; 53.6 µM (inactive) in the test on SK-OV-3; > 100 µM (inactive) with MDA-MB-231. The GI50 is 17.2 µM (inactive) in the test with M14; 6.15 µM (inactive) in the test with UACC-62; 15.8 µM (inactive) in the test with SF-295; 16.6 µM (inactive) in the test on HOP-62; 1.33 µM (inactive) in the test on UO-31; 4.5 µM (inactive) with MCF7.

In the case of `CC(=O)/C(=C/N1CC(=O)NC1=S)C(=O)Nc1ccccc1C`, the GI50 in the test with OVCAR-4, with SNB-19, in the test on EKVX, in the test on T47D, in the test with BT-549 and in the test with OVCAR-5 was > 100 µM (inactive) throughout. The GI50 in the test with CAKI-1, with U-251, with LOX IMVI, in the test with SK-OV-3, with MDA-MB-231 and in the test with M14 was > 100 µM (inactive) throughout. The GI50 in the test on SF-295, with HOP-62, in the test on UO-31 and in the test on RXF 393 was > 100 µM (inactive) throughout.

Turning to `CCOc1ccc(/C=C2\NC(=S)N(/C=C3\C(=O)Oc4ccccc4C3=O)C2=O)cc1`, the GI50 in the test on OVCAR-4 is 28.1 µM (inactive); with SNB-19 it was 22.8 µM (inactive); with EKVX, 24.7 µM (inactive); with NCI-H522, 20.7 µM (inactive); with BT-549, 23.6 µM (inactive); in the test on OVCAR-5, 40.2 µM (inactive). For the same molecule, the GI50 was 23.9 µM (inactive) in the test on CAKI-1; 29 µM (inactive) in the test with U-251; 28.9 µM (inactive) with LOX IMVI; 17.9 µM (inactive) with SK-OV-3; 20.4 µM (inactive) in the test with MDA-MB-231; 31.6 µM (inactive) with M14. The GI50 with UACC-62 was 17.5 µM (inactive); with SF-295, 20.4 µM (inactive); in the test with HOP-62, 26.1 µM (inactive); in the test on UO-31 it was 24.1 µM (inactive); in the test on MCF7 it was 17.8 µM (inactive); in the test on RXF 393, 3.84 µM (inactive).

In the case of `O=C(/C=C/c1ccccc1)CCC1C(=O)NC(=O)NC1=O`, the GI50 with OVCAR-4, in the test with SNB-19, with EKVX, in the test on NCI-H522, in the test on T47D and in the test with BT-549 was > 100 µM (inactive) throughout. For the same molecule, the GI50 in the test with OVCAR-5 was > 100 µM (inactive); in the test on CAKI-1, > 100 µM (inactive); in the test on U-251 it was > 100 µM (inactive); with K562, 97.9 µM (inactive); with LOX IMVI, > 100 µM (inactive); in the test with SK-OV-3 it was > 100 µM (inactive). In addition, the GI50 with MDA-MB-231, in the test on M14, in the test with UACC-62, in the test on SF-295, with UO-31 and in the test with MCF7 was > 100 µM (inactive) in each case.

Consider `CCOC(=O)C1C(c2ccc(OC)cc2)c2c(n[nH]c2O)CC1(O)OCC` (stereo not given), for which the GI50 in the test on OVCAR-4, with SNB-19, with EKVX, in the test with NCI-H522, in the test on T47D and in the test on BT-549 was > 100 µM (inactive) in each case. For the same molecule, the GI50 in the test on OVCAR-5, in the test on CAKI-1, in the test on U-251, in the test on LOX IMVI, in the test on MDA-MB-231 and in the test on M14 was > 100 µM (inactive) each time. Also, the GI50 is > 100 µM (inactive) in the test with UACC-62; 44.8 µM (inactive) in the test with SF-295; > 100 µM (inactive) with HOP-62; > 100 µM (inactive) in the test with UO-31; > 100 µM (inactive) in the test on MCF7.

`CC1(C)O[C@H]2[C@@H]3N=C(c4ccccc4)O[C@@H]3C=C[C@H]2O1`: the GI50 with OVCAR-4 was > 100 µM (inactive); in the test on SNB-19, > 100 µM (inactive); with EKVX it was 59.7 µM (inactive); in the test with NCI-H522 it was 4.01 µM (inactive); in the test on T47D, > 100 µM (inactive); in the test with BT-549, > 100 µM (inactive). The GI50 in the test with OVCAR-5, with CAKI-1, in the test on U-251, in the test with K562, with LOX IMVI and in the test with SK-OV-3 was > 100 µM (inactive) in each case. For the same molecule, the GI50 in the test on MDA-MB-231, with M14, in the test with UACC-62, in the test with SF-295, with HOP-62 and in the test on UO-31 was > 100 µM (inactive) throughout. For the same molecule, the GI50 with MCF7 is > 100 µM (inactive).

As to `CCCCc1c2c(nc3c1CCCC3O)CCCC2` (stereo not given), the GI50 in the test with OVCAR-4 is > 100 µM (inactive); with SNB-19, > 100 µM (inactive); in the test with EKVX it was 73.6 µM (inactive); with NCI-H522, > 100 µM (inactive); in the test on BT-549 it was > 100 µM (inactive); with OVCAR-5, > 100 µM (inactive). The GI50 was > 100 µM (inactive) in the test with CAKI-1; > 100 µM (inactive) with U-251; 84.3 µM (inactive) in the test on K562; > 100 µM (inactive) in the test with SK-OV-3; > 100 µM (inactive) in the test on MDA-MB-231; > 100 µM (inactive) in the test on M14. The GI50 in the test on UACC-62, with SF-295, in the test on HOP-62, in the test on UO-31, in the test with MCF7 and in the test with RXF 393 was > 100 µM (inactive) in each case.

On to `Cc1ccc(N2C(=O)C=C(C3=C(O)C(=O)N(c4ccc(C)cc4)C3=O)C2=O)cc1`, for which the GI50 in the test with OVCAR-4, in the test with SNB-19, with EKVX, in the test with T47D, with BT-549 and in the test on OVCAR-5 was > 100 µM (inactive) each time. Moreover, the GI50 in the test with U-251, in the test on K562, in the test with LOX IMVI, in the test on SK-OV-3, with MDA-MB-231 and in the test with M14 was > 100 µM (inactive) in each case. The GI50 in the test on UACC-62, in the test with SF-295, with HOP-62, with UO-31 and in the test with MCF7 was > 100 µM (inactive) each time.

As for `Cc1ccc(-c2n[nH]c(=O)[nH]2)cc1[N+](=O)[O-]`, the GI50 is > 100 µM (inactive) in the test on OVCAR-4; > 100 µM (inactive) with SNB-19; 0.643 µM (active) with EKVX; > 100 µM (inactive) in the test on NCI-H522; > 100 µM (inactive) with T47D; 36.8 µM (inactive) with BT-549. Moreover, the GI50 in the test on OVCAR-5, in the test on CAKI-1, in the test with U-251, with K562, with LOX IMVI and in the test on M14 was > 100 µM (inactive) each time. The GI50 was > 100 µM (inactive) with UACC-62; > 100 µM (inactive) in the test with SF-295; > 100 µM (inactive) in the test with HOP-62; 27.5 µM (inactive) in the test on UO-31; > 100 µM (inactive) with MCF7; > 100 µM (inactive) in the test on RXF 393.

`Cn1c(=O)cc(NNc2ccc(Br)cc2)[nH]c1=O`: the GI50 was 16 µM (inactive) in the test on OVCAR-4; 13.6 µM (inactive) in the test on SNB-19; 16.5 µM (inactive) with EKVX; 16.9 µM (inactive) with BT-549; 13.4 µM (inactive) with OVCAR-5; 3.05 µM (inactive) with U-251. The GI50 in the test on K562 was 1.17 µM (inactive); in the test with LOX IMVI it was 2.11 µM (inactive); with MDA-MB-231, 14.6 µM (inactive); in the test on M14 it was 15.5 µM (inactive); in the test with SF-295 it was 13.4 µM (inactive); in the test on HOP-62, 12.8 µM (inactive). In addition, the GI50 in the test with UO-31 is 16.4 µM (inactive); with MCF7 it was 10.4 µM (inactive).
